{"source": "PubChem BioAssay AID180", "about": "(DTP/NCI, 2004)", "test_system": "BDF1 mice, Adenocarcinoma 755 s.c., tumor weight T/C", "test": "NCI In Vivo Anticancer Drug Screen. Data for tumor model Adenocarcinoma 755 (subcutaneous) in B6D2F1 (BDF1) mice", "settings": "endpoint: mean tumor weight, higher = larger tumour", "outline": "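Values express treated (T) relative to vehicle-dosed control (C) animals, based on survival or tumour size measured after compound treatment of mice bearing a transplanted tumour.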", "note": "Several values for one entry are separate records, joined by “and”; a condition that tells them apart may be missing. Equal values may be shown once.", "data": [{"compound": "COB1OB(OC)OB(OC)O1", "values": [{"measurement": "T/C", "setting": "dose: 18.75 mg/kg/injection, schedule: Q01DX011 (ip), vehicle: water", "value": "78 % of control"}, {"measurement": "T/C", "setting": "dose: 250.0 mg/kg/injection, schedule: Q#A X022 (oral), vehicle: water", "value": "64 % of control"}, {"measurement": "T/C", "setting": "dose: 335.0 mg/kg/injection, schedule: Q01DX011 (ip), vehicle: other", "value": "51 % of control"}, {"measurement": "T/C", "setting": "dose: 375.0 mg/kg/injection, schedule: Q01DX011 (im), vehicle: other", "value": "59 % of control"}, {"measurement": "T/C", "setting": "dose: 375.0 mg/kg/injection, schedule: Q01DX011 (ip), vehicle: other", "value": "75 % of control"}, {"measurement": "T/C", "setting": "dose: 375.0 mg/kg/injection, schedule: Q01DX011 (ip), vehicle: water", "value": "61 % of control"}, {"measurement": "T/C", "setting": "dose: 375.0 mg/kg/injection, schedule: Q01DX011 (sc), vehicle: other", "value": "81 % of control"}, {"measurement": "T/C", "setting": "dose: 450.0 mg/kg/injection, schedule: Q#A X022 (sc), vehicle: other", "value": "40 % of control"}, {"measurement": "T/C", "setting": "dose: 500.0 mg/kg/injection, schedule: Q01DX011 (ip), vehicle: other", "value": "41 % of control and 51 % of control"}, {"measurement": "T/C", "setting": "dose: 500.0 mg/kg/injection, schedule: Q01DX011 (oral), vehicle: other", "value": "97 % of control and 75 % of control"}, {"measurement": "T/C", "setting": "dose: 500.0 mg/kg/injection, schedule: Q#A X022 (oral), vehicle: water", "value": "43 % of control"}, {"measurement": "T/C", "setting": "dose: 600.0 mg/kg/injection, schedule: Q01DX011 (oral), vehicle: other", "value": "53 % of control"}, {"measurement": "T/C", "setting": "dose: 600.0 mg/kg/injection, schedule: Q## X012 (oral), vehicle: other", "value": "109 % of control"}, {"measurement": "T/C", "setting": "dose: 600.0 mg/kg/injection, schedule: Q#A X022 (im), vehicle: other", "value": "28 % of control"}, {"measurement": "T/C", "setting": "dose: 600.0 mg/kg/injection, schedule: Q#A X022 (sc), vehicle: other", "value": "74 % of control"}, {"measurement": "T/C", "setting": "dose: 750.0 mg/kg/injection, schedule: Q01DX011 (im), vehicle: other", "value": "65 % of control and 74 % of control"}, {"measurement": "T/C", "setting": "dose: 750.0 mg/kg/injection, schedule: Q01DX011 (ip), vehicle: other", "value": "43 % of control and 47 % of control and 55 % of control"}, {"measurement": "T/C", "setting": "dose: 750.0 mg/kg/injection, schedule: Q01DX011 (ip), vehicle: water", "value": "20 % of control"}, {"measurement": "T/C", "setting": "dose: 750.0 mg/kg/injection, schedule: Q01DX011 (oral), vehicle: other", "value": "71 % of control"}, {"measurement": "T/C", "setting": "dose: 750.0 mg/kg/injection, schedule: Q02DX006 (ip), vehicle: other", "value": "71 % of control"}, {"measurement": "T/C", "setting": "dose: 750.0 mg/kg/injection, schedule: Q## X006 (ip), vehicle: other", "value": "78 % of control"}, {"measurement": "T/C", "setting": "dose: 750.0 mg/kg/injection, schedule: Q#A X022 (oral), vehicle: water", "value": "7 % of control and 21 % of control"}, {"measurement": "T/C", "setting": "dose: 750.0 mg/kg/injection, schedule: Q#A X022 (sc), vehicle: other", "value": "43 % of control"}, {"measurement": "T/C", "setting": "dose: 800.0 mg/kg/injection, schedule: Q01DX011 (im), vehicle: other", "value": "77 % of control"}, {"measurement": "T/C", "setting": "dose: 800.0 mg/kg/injection, schedule: Q#A X022 (im), vehicle: other", "value": "50 % of control"}, {"measurement": "T/C", "setting": "dose: 1000.0 mg/kg/injection, schedule: Q01DX011 (im), vehicle: other", "value": "48 % of control and 56 % of control"}, {"measurement": "T/C", "setting": "dose: 1000.0 mg/kg/injection, schedule: Q01DX011 (ip), vehicle: other", "value": "14 % of control and 37 % of control"}, {"measurement": "T/C", "setting": "dose: 1000.0 mg/kg/injection, schedule: Q01DX011 (oral), vehicle: saline", "value": "47 % of control"}, {"measurement": "T/C", "setting": "dose: 1000.0 mg/kg/injection, schedule: Q01DX011 (oral), vehicle: water", "value": "37 % of control"}, {"measurement": "T/C", "setting": "dose: 1000.0 mg/kg/injection, schedule: Q02DX006 (ip), vehicle: other", "value": "45 % of control"}, {"measurement": "T/C", "setting": "dose: 1000.0 mg/kg/injection, schedule: Q## X006 (ip), vehicle: other", "value": "63 % of control"}, {"measurement": "T/C", "setting": "dose: 1000.0 mg/kg/injection, schedule: Q## X012 (oral), vehicle: other", "value": "84 % of control"}, {"measurement": "T/C", "setting": "dose: 1000.0 mg/kg/injection, schedule: Q#A X022 (oral), vehicle: water", "value": "8 % of control"}, {"measurement": "T/C", "setting": "dose: 1000.09 mg/kg/injection, schedule: Q01DX011 (oral), vehicle: other", "value": "36 % of control"}, {"measurement": "T/C", "setting": "dose: 1125.0 mg/kg/injection, schedule: Q01DX011 (ip), vehicle: other", "value": "43 % of control"}, {"measurement": "T/C", "setting": "dose: 1200.0 mg/kg/injection, schedule: Q01DX011 (im), vehicle: other", "value": "22 % of control"}, {"measurement": "T/C", "setting": "dose: 1250.0 mg/kg/injection, schedule: Q01DX011 (sc), vehicle: other", "value": "38 % of control"}, {"measurement": "T/C", "setting": "dose: 1250.0 mg/kg/injection, schedule: Q#A X022 (oral), vehicle: water", "value": "2 % of control and 10 % of control"}, {"measurement": "T/C", "setting": "dose: 1500.0 mg/kg/injection, schedule: Q01DX011 (im), vehicle: other", "value": "16 % of control and 30 % of control"}, {"measurement": "T/C", "setting": "dose: 1500.0 mg/kg/injection, schedule: Q01DX011 (ip), vehicle: water", "value": "6 % of control"}, {"measurement": "T/C", "setting": "dose: 1500.0 mg/kg/injection, schedule: Q01DX011 (oral), vehicle: saline", "value": "16 % of control"}, {"measurement": "T/C", "setting": "dose: 1500.0 mg/kg/injection, schedule: Q01DX011 (oral), vehicle: water", "value": "16 % of control"}, {"measurement": "T/C", "setting": "dose: 1500.0 mg/kg/injection, schedule: Q01DX011 (sc), vehicle: other", "value": "22 % of control"}, {"measurement": "T/C", "setting": "dose: 1500.0 mg/kg/injection, schedule: Q02DX006 (ip), vehicle: other", "value": "37 % of control"}, {"measurement": "T/C", "setting": "dose: 1500.0 mg/kg/injection, schedule: Q## X006 (ip), vehicle: other", "value": "58 % of control"}, {"measurement": "T/C", "setting": "dose: 1500.0 mg/kg/injection, schedule: Q## X012 (oral), vehicle: other", "value": "51 % of control"}, {"measurement": "T/C", "setting": "dose: 2000.0 mg/kg/injection, schedule: Q01DX011 (oral), vehicle: saline", "value": "14 % of control"}, {"measurement": "T/C", "setting": "dose: 2000.0 mg/kg/injection, schedule: Q01DX011 (oral), vehicle: water", "value": "7 % of control"}, {"measurement": "T/C", "setting": "dose: 2000.0 mg/kg/injection, schedule: Q## X012 (oral), vehicle: other", "value": "15 % of control"}, {"measurement": "T/C", "setting": "dose: 2500.0 mg/kg/injection, schedule: Q01DX011 (oral), vehicle: saline", "value": "4 % of control"}, {"measurement": "T/C", "setting": "dose: 2500.0 mg/kg/injection, schedule: Q## X012 (oral), vehicle: other", "value": "22 % of control"}]}]}
